Measured values published in US20080188528A1, “Modulators of C3a receptor and methods of use thereof” (priority 2006, published 2008).
pIC50: −log10 of the molar value. Where a name gives a salt, the structure may show the parent alone. Each block holds one molecule with its values, some of them ahead of it.

Tests used:
[1] = cited from earlier work
[2] = target: T1, human C3a receptor (C3aR) (Homo sapiens, UniProt Q16581); assay: Inhibition of human [125I]-C3a binding to human C3a receptor (SPA, membranes of HEK293 cells expressing recombinant C3aR); conditions: 0.1 nM [125I]-C3a, 3 hours at room temperature
T1 construct: expressed in transfected cells
T1 sequence (Q16581 1-482): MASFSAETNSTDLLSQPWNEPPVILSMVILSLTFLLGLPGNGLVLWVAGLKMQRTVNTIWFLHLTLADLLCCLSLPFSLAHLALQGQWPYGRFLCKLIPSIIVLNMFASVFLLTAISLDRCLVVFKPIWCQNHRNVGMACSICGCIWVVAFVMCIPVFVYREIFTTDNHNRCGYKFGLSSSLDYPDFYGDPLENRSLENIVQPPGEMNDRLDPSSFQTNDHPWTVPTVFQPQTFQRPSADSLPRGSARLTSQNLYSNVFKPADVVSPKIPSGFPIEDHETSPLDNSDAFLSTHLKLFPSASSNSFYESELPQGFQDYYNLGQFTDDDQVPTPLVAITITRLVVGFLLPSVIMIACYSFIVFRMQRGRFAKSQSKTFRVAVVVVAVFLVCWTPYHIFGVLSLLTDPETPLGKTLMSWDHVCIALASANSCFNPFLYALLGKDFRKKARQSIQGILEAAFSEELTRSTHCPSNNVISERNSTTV
Method in brief: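 HEK293 C3aR membranes were pre-coupled to WGA SPA beads and incubated 3 h at room temperature with 0.1 nM [125I]-C3a in HEPES pH 7.4 buffer containing 0.25% BSA and 0.2% CHAPS, DMSO ≤1%. Nonspecific binding was defined with 1 μM unlabeled C3a. IC50 came from nonlinear least-squares fitting.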

Compound: NC(N)=NCCC[C@H](NC(=O)COCC(c1ccccc1)c1ccccc1)C(=O)O [SB-290157]
- airway inflammation ([1]; asthma model): reduction of airway inflammation
- neutrophil recruitment ([1]; in vivo): inhibition of neutrophil recruitment
- paw edema ([1]; in vivo): decreased paw edema

Compound: N=C(N)NCCC[C@H](NC(=O)c1cccn(C(c2ccc(C(F)(F)F)cc2)c2ccc(C(F)(F)F)cc2)c1=O)C(=O)O [Compound 49, (2S)-2-{[(1-{bis[4-(trifluoromethyl)phenyl]methyl}-2-oxo-1,2-dihydropyridin-3-yl)carbonyl]amino}-5-carbamimidamidopentanoic acid•TFA]
- pIC50 ([2]; Table 2): 6.30 to 7.30

Compound: Cc1c(C)c(S(=O)(=O)NC(=N)Nc2cccc([C@H](NC(=O)c3cccn(Cc4ccccc4)c3=O)C(=O)O)c2)c(C)c2c1OC(C)(C)CC2 [Compound 78, (2S)-{[(1-benzyl-2-oxo-1,2-dihydropyridin-3-yl)carbonyl]amino}(3-{[(2,2,5,7,8-pentamethyl-3,4-dihydro-2H-chromen-6-yl)sulfonyl]carbamimidamido}phenyl)acetic acid]
- pIC50 ([2]; Table 4): 4.70 to 6.30

Compound: CC1(C)CCC(C)(C)c2cc(Cn3cccc(C(=O)N[C@@H](CCCNC(=N)N)C(=O)O)c3=O)ccc21 [Compound 16, (2S)-5-carbamimidamido-2-[({2-oxo-1-[(5,5,8,8-tetramethyl-5,6,7,8-tetrahydro-2-naphthyl)methyl]-1,2-dihydropyridin-3-yl}carbonyl)amino]pentanoic acid•TFA]
- pIC50 ([2]; Table 1): 4.70 to 6.30

Results, then the molecule that gave them:

- pIC50 ([2]; Table 4): 4.70 to 6.30
Compound: NC(=O)CC[C@H](NC(=O)c1cccn(C(c2ccccc2)c2ccccc2)c1=O)C(=O)O [Compound 64, (2S)-5-amino-2-({[1-(diphenylmethyl)-2-oxo-1,2-dihydropyridin-3-yl]carbonyl}amino)-5-oxopentanoic acid]

- pIC50 ([2]; Table 1): 6.30 to 7.30
Compound: N=C(N)NCCC[C@H](NC(=O)c1cccn(CC(=O)N(c2ccccc2)c2ccccc2)c1=O)C(=O)O [Compound 37, (2S)-5-carbamimidamido-2-[({1-[2-(diphenylamino)-2-oxoethyl]-2-oxo-1,2-dihydropyridin-3-yl}carbonyl)amino]pentanoic acid•TFA]

- pIC50 ([2]; Table 6): 4.70 to 6.30
Compound: N=C(NCCC[C@H](NC(=O)c1ccc(C(c2ccccc2)c2ccccc2)s1)C(=O)O)c1ccccc1 [Compound 120, (2S)-2-({[5-(diphenylmethyl)thiophen-2-yl]carbonyl}amino)-5-{[imino(phenyl)methyl]amino}pentanoic acid•TFA]

- pIC50 ([2]; Table 1): 6.30 to 7.30
Compound: N=C(N)NCCC[C@H](NC(=O)c1cccn(Cc2ccc3ccccc3n2)c1=O)C(=O)O [Compound 15, (2S)-5-carbamimidamido-2-({[2-oxo-1-(quinolin-2-ylmethyl)-1,2-dihydropyridin-3-yl]carbonyl}amino)pentanoic acid•TFA]

- pIC50 ([2]; Table 1): 6.30 to 7.30
Compound: N=C(N)NCCC[C@H](NC(=O)c1cccn(-c2ccc3ccccc3c2)c1=O)C(=O)O [Compound 32, (2S)-5-carbamimidamido-2-({[1-(2-naphthyl)-2-oxo-1,2-dihydropyridin-3-yl]carbonyl}amino)pentanoic acid•TFA]

- pIC50 ([2]; Table 6): 6.30 to 7.30
Compound: CC(=N)NCCC[C@H](NC(=O)c1cccc(C(c2ccccc2)c2ccccc2)c1)C(=O)O [Compound 112, (2S)-2-({[3-(Diphenylmethyl)phenyl]carbonyl}amino)-5-(ethanimidoylamino)pentanoic acid]
